Literature values in patent US20040259949A1, “Method” (priority 2001, published 2004).

Columns and labels:
[1] = rat model
[2] = mice

Row | Compound | influence of PDT on skin wound healing [1] | effect of PDT on healing of colonic anastomosis [2] | effect of PDT on viability of normal human fibroblasts (normal human fibroblasts)
1 | benzoporphyrin derivative monoacid ring A [BDP-MA] | did not influence skin wound healing | – | –
2 | NCC(=O)CCC(=O)O [5-ALA, 5-amino-4-oxo-pentanoic acid] | – | no significant impairment in healing of colonic anastomosis | no effect on viability of normal human fibroblasts
